Measured values published in patent US20240352401A1, “FURFURAL-RESISTANT STRAIN AND METHOD FOR IMPROVING FURFURAL-RESISTANT OF STRAIN” (Korea Institute of Science and Technology, priority 2023, published 2024).

What was measured:
[1] = tested on: Yarrowia lipolytica strain; conditions: very low concentration (~0.5 g/L) of furfural; cited from earlier work
[2] = tested on: wild-type Yarrowia lipolytica strain (PO1f, ATCC MYA-2613); assay: Growth inhibition and glucose consumption of the parent strain according to furfural concentration (Reference Example 1); assay type: cell-based
From the text: Confirmation of the degree of growth inhibition according to furfural in a parent strain Prior to the production of furfural-resistant strains, Yarrowia lipolytica PO1f strain having accession number ATCC MYA-2613, which are wild-type Yarrowia lipolytica, was selected as a parent strain, and the degree of growth inhibition and the degree of glucose consumption according to the concentration of furfural in the wild-type Yarrowia lipolytica strain, and the concentrations of furfural and furoic acid in the culture medium according to the cell culture time were confirmed.
Specifically, as the culture medium, a minimal medium (YSC medium (Yeast Synthetic Complete medium)) containing 6.7 g/L yeast nitrogen base (YNB), 20 g/L glucose as a carbon source and supplemented with complete supplement mixture (CSM) or CSM-Leu or CSM-Leu-Ura (MP Biomedicals, Solon, OH, USA) used. Furfural was added to the medium at concentrations of 0.1 g/L, 0.2 g/L, 0.3 g/L, 0.4 g/L or 0.5 g/L, respectively, and the growth rate was compared with that when furfural was not added. The culture was inoculated with the wild-type Yarrowia lipolytica strain with an initial OD600 value of 0.2 in 20 mL of the culture medium in a 100 mL Erlenmeyer flask, and then proceeded with shaking culture at 28° C. at 200 rpm. In this case, the wild-type strain is Yarrowia lipolytica PO1f strain with accession number ATCC MYA-2613. The “OD600” refers to the absorbance or optical density at a wavelength of 600 nm. It is possible to measure the density or concentration of microorganisms or cells in a sample by using the measured OD600.

[3] = furfural 0.1-0.5 g/L in YSC medium, 20 g/L glucose, 28° C., 200 rpm

Structure (SMILES): O=Cc1ccco1 [furfural]
- cell growth of Yarrowia lipolytica strain [1]: significantly inhibited
- initial growth of the wild-type strain ([2]; 0.2 g/L or more of furfural): growth was delayed
- growth of the wild-type strain ([2]; 0.5 g/L of furfural): no growth was observed
- growth of the wild-type Yarrowia lipolytica strain as the furfural concentration increased [2, 3]: clearly inhibited
- rate of glucose consumption as the furfural concentration increased [2, 3]: reduced
